We go through one substance from US20100075894A1, “REDUCING ER STRESS IN THE TREATMENT OF OBESITY AND DIABETES” (HARVARD UNIVERSITY, priority 2004, published 2010).

For one experiment, the system named is Fao liver cells. The experiment can be described thus: ER stress inducers and insulin action in Fao liver cells. Type of experiment: cell-based, rat. As for the experimental part: (§1) (A) ER stress was induced in Fao liver cells by a 3-hour treatment with 5 μg/ml tunicamycin (Tun). Cells were subsequently stimulated with insulin (Ins). IRS-1 tyrosine and serine (Ser307) phosphorylation, Akt phosphorylation (Ser473), insulin receptor (IR) tyrosine phosphorylation, and their total protein levels were examined using either immunoprecipitation (IP) followed by immunoblotting (IB) or direct immunoblotting. (B) Quantitation of IRS-1 (tyrosine and Ser307), Akt (Ser473), and IR (tyrosine) phosphorylation under the experimental conditions described in (A) with normalization to protein levels for each molecule. (C) Inhibition of ER stress-induced (300 nM thapsigargin for 4 hours) Ser307 phosphorylation of IRS-1 by JNK-1 inhibitor, SP600125 (JNKi, 25 μM), (D) Quantitation of IRS-1 Ser307 phosphorylation under conditions described in (C). (E) Reversal of ER stress-induced inhibition of insulin-stimulated tyrosine phosphorylation (pY) of IRS-1 by a JNK inhibitor. (F) Quantitation of insulin-induced IRS-1 tyrosine phosphorylation levels described in (E). (G) JNK activity, Ser307 phosphorylation of IRS-1, and total IRS-1 levels at indicated times following tunicamycin treatment (Tun, 10 μg/ml for 1 hour) in IRE-1α^+/+ and IRE-1α^−/− fibroblasts. (H) Insulin-stimulated IRS-1 tyrosine phosphorylation and total IRS-1 levels following tunicamycin treatment (Tun, 10 μg/ml for 1 hour) in IRE-1α^+/+ and IRE-1α^−/− fibroblasts. […] All graphs show mean±SEM from at least 2 independent experiments and statistical significance from the controls is indicated by * with p<0.005.
(A) ER stress was induced in Fao cells by 1 hour treatment with 300 nM thapsigargin (Thap), and cells were subsequently stimulated with insulin (Ins). IRS-1 tyrosine phosphorylation (pY) and serine phosphorylation (pSer307), insulin receptor (IR) tyrosine phosphorylation, and total protein levels were examined using either immunoprecipitation (IP) followed by immunoblotting (IB) or direct immunoblotting. (B) Fao cells were treated with sulindac sulfide (SS: 0, 7.5, 30, and 60 μM) for 45 minutes with or without an additional hour of exposure to 300 nM thapsigargin (Thap). IRS-1 serine phosphorylation and total IRS-1 protein levels were examined as described above.
To investigate whether ER stress interferes with insulin action, we pretreated Fao liver cells with tunicamycin and thapsigargin, agents commonly used to induce ER stress. […] IRS-1 is a substrate for insulin receptor tyrosine kinase and serine phosphorylation of IRS-1, particularly mediated by JNK, reduces insulin receptor signaling (Hirosumi et al., Nature 420:333 (2002); incorporated herein by reference).
Cells: Rat Fao liver cells were cultured with RPMI 1640 (Gibco, Grand Island, N.Y.) containing 10% fetal bovine serum (FBS). […]

In experiment [1] the test system is IRE-1α^−/− and wild type (WT) fibroblasts. The experiment can be described thus: tunicamycin in IRE-1α+/+ and IRE-1α−/− fibroblasts. Type of experiment: cell-based, mouse.
Source text: JNK activity was examined at indicated times following treatment with tunicamycin in IRE1a+/+ and IRE-1a−/− fibroblasts using an […] kinase assay and recombinant c-jun as substrate. JNK activity and total JNK levels (a). Phosphorylation of IRS-1 at ser307 residue in IRE1a+/+ and IRE-1a−/− fibroblasts following treatment with tunicamycin following IRS-1 immunoprecipitation (IP) and immunoblotting (IB) with an IRS-1 phosphoserine 307-specific antibody (b). Insulin (ins)-stimulated IRS-1 tyrosine phosphorylation and total IRS-1 in levels following treatment of IRE1a+/+ and IRE-1a−/− fibroblasts with tunicamycin.
as §1
In the presence of ER stress, increased phosphorylation of inositol requiring kinase-1α (IRE-1α) leads to recruitment of TNF-α receptor-associated factor 2 (TRAF2) protein and activates JNK (Urano et al., Science 287:664 (2000); incorporated herein by reference). To address whether ER stress-induced insulin resistance is dependent on intact IRE-1α, we measured JNK activation, IRS-1 serine phosphorylation, and insulin receptor signaling upon exposure of IRE-1α^−/− and wild type (WT) fibroblasts to tunicamycin. […]

[2] abbreviates: Fao cells pretreated with the agent.

As for tunicamycin, in the experiment on Fao liver cells (setting [2]), the “insulin-induced Akt phosphorylation” value is “suppressed” and the “serine phosphorylation of IRS-1” value is listed as “significant increase”. Further, the “insulin-stimulated tyrosine phosphorylation of IRS-1” value in the experiment with Fao liver cells (Fao liver cells pretreated with the agent) is reported as “significantly decreased”. Moreover, the “insulin-stimulated tyrosine phosphorylation of IRS-1” value in experiment [1] (IRE-1α−/− cells) is recorded as “no such effect was detected”. For the same substance, the “insulin-stimulated tyrosine phosphorylation of IRS-1” value in experiment [1] (WT cells) is reported as “inhibited”. In experiment [1] (WT fibroblasts), the JNK activation entry is on record as “strong activation of JNK” and the “phosphorylation of IRS-1 at Ser307” value is on record as “stimulated”.
